Read-outs that look alike come from different tables or passages of the source.
Key:
Test in all cases: Secondary dose-response HTS, Cell Titer Glo; call rule not given here
Format in all cases: cell-based, human
M07e = tested on: M07e
CHRF288-11 = settings: for EC50: Homo sapiens
CMK = settings: CMK
U937 = tested on: U937
ML2 = settings: ML-2
CMS = tested on: CMS
MV4-11 = settings: MV4-11; for EC50: Homo sapiens
[1] = Homo sapiens, M-07e, secondary high-throughput screen, M07e, read-out: average effective concentration, M07e
[2] = HTS, secondary high-throughput screen, CHRF288-11, read-out: average effective concentration, CHRF288-11
[3] = Homo sapiens, U-937, secondary high-throughput screen, U937, read-out: average effective concentration, U937
[4] = Homo sapiens, secondary high-throughput screen, read-out: average effective concentration, ML-2
[5] = Homo sapiens, HTS, secondary high-throughput screen, CMS, read-out: average effective concentration, CMS
[6] = secondary high-throughput screen, M07e
[7] = secondary high-throughput screen, CHRF288-11
[8] = secondary high-throughput screen
[9] = secondary high-throughput screen, U937
[10] = secondary high-throughput screen, CMS
[11] = secondary high-throughput screen, read-out: average effective concentration, ML-2

Compound	average effective concentration, M07e (M07e; [6])	average effective concentration, CHRF288-11 (CHRF288-11; [7])	average effective concentration, CMK (CMK; [8])	average effective concentration, U937 (U937; [9])	average effective concentration, MV4-11 (MV4-11; [8])	average effective concentration, ML-2 (ML2; [8])	average effective concentration, CMS (CMS; [10])	further results
O=C(CCCCCN1C(=O)c2cccc3cccc(c23)C1=O)NO								EC50 (M07e; [1]): 330 nM; EC50 (CHRF288-11; [2]): 1700 nM; EC50 (CMK; Homo sapiens, secondary high-throughput screen, read-out: average effective concentration, CMK): 200 nM; EC50 (U937; [3]): 680 nM; EC50 (ML2; [4]): 4100 nM; EC50 (CMS; [5]): 600 nM
O=C(O)C(Cc1c[nH]c2ccccc12)N1C(=O)c2ccccc2C1=O (stereo not drawn) [RG108]	Inactive	Inactive	Inactive	Inactive	Inactive	Inactive	Inactive	
CC(C)Oc1ccc(-c2cnc3c(-c4ccnc5ccccc45)cnn3c2)cc1 [DMH-1]	Inactive	Inactive	Inactive	Inactive	Inactive	Inactive	Inactive	
EVODIAMINE								EC50 (M07e; secondary high-throughput screen, […], read-out: average effective concentration, M07e): 4400 nM; EC50 (CMK; secondary high-throughput screen, read-out: average effective concentration, CMK): 300 nM; EC50 (U937; secondary high-throughput screen, U937, read-out: average effective concentration, U937): 2100 nM; EC50 (ML2; [11]): 450 nM; EC50 (CMS; secondary high-throughput screen, CMS, read-out: average effective concentration, CMS): 1500 nM
O=C(c1ccc(Cl)cc1Cl)n1nnc2ccccc21 [ITSA1]	Inactive		Inactive	Inactive	Inactive		Inactive	
COc1ccc(-c2ccc3ncc4c(c3c2)n(-c2ccc(N3CCNCC3)c(C(F)(F)F)c2)c(=O)n4C)cn1 [NVP-BGT226, reference compound]								EC50 (M07e; Homo sapiens, M-07e, secondary HTS, 72 h, average of triplicate, read-out: EC50 M07e): 250 nM; EC50 (M07e; [1]): 250 nM; EC50 (CHRF288-11; [2]): 55 nM; EC50 (CHRF288-11; secondary HTS, 72 h, average of triplicate, read-out: EC50 CHRF288-11): 50 nM; EC50 (CMK; Homo sapiens, 72 h, read-out: EC50 CMK): 60 nM; EC50 (CMK; Homo sapiens, read-out: average effective concentration, CMK): 63 nM; EC50 (U937; Homo sapiens, U-937, secondary HTS, 72 h, average of triplicate, read-out: EC50 U937): 80 nM; EC50 (U937; [3]): 80 nM; EC50 (MV4-11; secondary HTS, 72 h, average of triplicate, read-out: EC50 MV4-11): 50 nM; EC50 (MV4-11; secondary high-throughput screen, read-out: average effective concentration, MV4-11): 50 nM; EC50 (ML2; Homo sapiens, secondary HTS, 72 h, average of triplicate, read-out: EC50 ML2): 230 nM; EC50 (ML2; [4]): 230 nM; EC50 (CMS; Homo sapiens, HTS, 72 h, read-out: EC50 CMS): 10 nM; EC50 (CMS; Homo sapiens, HTS, read-out: average effective concentration, CMS): 14 nM
NC(=O)c1cccc2ncc(-c3ccc(Cl)cc3)nc12 [PARP INHIBITOR XII]	Inactive	Inactive	Inactive	Inactive	Inactive	Inactive	Inactive	
COC(=O)[C@H](CC(C)C)NC(=O)c1ccc(NCc2cnc[nH]2)cc1-c1cccc2ccccc12 [GGTI-2147]	Inactive	Inactive	Inactive	Inactive	Inactive	Inactive	Inactive	
C[S+]([O-])CCCCN=C=S (stereo not drawn) [SULFORAPHANE]								EC50 (M07e; [1]): > 10000 nM; EC50 (CHRF288-11; [2]): > 10000 nM; EC50 (U937; [3]): > 10000 nM; EC50 (ML2; [4]): > 10000 nM; EC50 (CMS; [5]): > 10000 nM
C/C(=C\C(=O)Nc1ccccc1C(=O)O)c1ccc2ccccc2c1 [BIBR-1532]	Inactive		Inactive	Inactive	Inactive		Inactive	
O=C1NCCc2c(OCCCCN3CCCCC3)cccc21 [DPQ]	Inactive	Inactive	Inactive	Inactive	Inactive	Inactive	Inactive	
CN(C)CC(=O)Nc1ccc2[nH]c(=O)c3ccccc3c2c1 [PJ34]	Inactive	Inactive	Inactive	Inactive	Inactive	Inactive	Inactive	
O=C(CCN1CCN(C(=O)OCc2cc(Cl)cc(Cl)c2)CC1)c1ccc2[nH]c(=O)oc2c1 [PF-8380]	Inactive	Inactive	Inactive	Inactive	Inactive	Inactive	Inactive	
Cc1noc(-c2ccc(-c3ccc(CC(=O)O)cc3)cc2)c1NC(=O)O[C@H](C)c1ccccc1Cl [AM-966]	Inactive	Inactive	Inactive	Inactive	Inactive	Inactive	Inactive	
CC(C)(O)[C@@H]1CC[C@](C)([C@H]2[C@@H](O)C[C@@]3(C)[C@@H]4C[C@H](O[C@@H]5O[C@H](CO)[C@@H](O)[C@H](O)[C@H]5O)[C@H]5C(C)(C)[C@@H](O[C@@H]6OC[C@@H](O)[C@H](O)[C@H]6O)CC[C@@]56C[C@@]46CC[C@]23C)O1 [ASTRAGALOSIDE IV]	Inactive		Inactive	Inactive	Inactive		Inactive	
Cc1cc(C(C)Nc2ccccc2)c2nc(N3CCOCC3)cc(=O)n2c1 (stereo not drawn) [TGX-221]	Inactive	Inactive		Inactive		Inactive	Inactive	
Nc1ncnc2c1ncn2[C@@H]1C=C(CO)[C@@H](O)[C@H]1O [NEPLANOCIN A]					Inactive		Inactive	average effective concentration, M07e (M07e; secondary high-throughput screen, […]): Inactive
O=C(CCCCCCSc1ccc2ccccc2c1)NO [HNHA]	Inactive		Inactive	Inactive	Inactive		Inactive	EC50 (ML2; [11]): 8500 nM
O=c1[nH]c2ccccc2c2ccccc12 [6(5H)-PHENANTHRIDINONE]	Inactive		Inactive	Inactive	Inactive		Inactive	
